From patent US20230358769A1, “CLOT […] FOR QUALITY MONITORING OF PLATELET PRODUCTS” (THE GOVERNMENT OF THE UNITED STATES AS REPRESENTED BY THE …, priority 2022, published 2023)
Where a SMILES comes first, the peptide text is derived from it. Bridges are numbered along the chain shown (N, C = ends). [ ]: non-standard residue; d: D form. hArg = N=C(N)NCCCC[C@H](N)C(=O)O; Mpa = O=C(O)CCS

Legend:
[1] = system: platelets in platelet rich plasma (PRP); test: Microplate clot retraction method (thrombin-activated platelet rich plasma, O.D. 350 nm kinetics); format: cell-based, human; conditions: for clot densification phase (phase 3) of the reaction kinetic curve: at the highest levels of inhibition
Procedure: Whole blood was collected in acid citrate dextrose tubes (ACD-A; BD Vacutainer, Franklin Lakes NJ) from healthy volunteers in accordance with a U.S. Army Research and Development Command approved protocol (USAISR L-20-003). Whole blood was centrifuged at 200×g for 10 minutes and platelet rich plasma (PRP) was obtained from the upper layer. Platelet poor plasma (PPP) was recovered from the remaining volume of the ACD-A tube after centrifugation at 3,000 times gravity (×g) for 10 minutes. To obtain apheresis platelets, the Trima Accel 7 (Terumo, Lakewood, CO) system was used for collection in either autologous plasma or Isoplate (65% Isoplate, 35% plasma). Platelet concentrations were determined on an Advia® 2120i (Siemens, Malvern, PA) and adjusted to 250,000 platelets/μL with autologous PPP, unless indicated otherwise.
Individual wells of a 96-well polystyrene microplate were coated with 150 μL of anti-adherence rinse solution (Stem Cell Technologies, Vancouver, Canada) and the microplate was centrifuged for 10 minutes at 1.300×g. The anti-adherence coating solution was aspirated and the coated wells were washed once with phosphate buffered saline. After washing, one side of each coated well was scored with an 18 Gauge (Ga) needle. Five μL of 30 U/ml thrombin (Haematologic Technologies, East Junction, VT) were added to each coated and scored well to initiate platelet aggregation, clot formation, and subsequent clot retraction.
PRP was supplemented with 6 mM CaCl2 (Sigma, St. Louis, MO) before aliquoting 180 μL to wells that were adjacent to the thrombin-containing (reaction) wells. The transfer of PRP to adjacent (staging) wells allowed for simultaneous transfer of multiple samples to the reaction wells using a multichannel pipette. The microplate was then loaded into a Synergy™ Neo2 microplate reader, and 145 μL of re-calcified PRP were transferred from the staging well to the reaction well. The plate scan was immediately started after addition of PRP. The plate scan protocol consisted of: temperature=37° C., assay duration=30 minutes, read interval=5 seconds, kinetic absorbance wavelength=350 nm, well scan absorbance wavelength=350 nm. After the plate scan protocol was completed, the plate was discarded and the data were exported as text files.
When indicated, the concentrations of platelets, CaCl2, or thrombin were varied to identify the optimal assay conditions for clot retraction. Additionally, PRP was pre-treated with increasing concentrations of inhibitors to platelet integrin αIIbβ3 (Eptifibatide, Sigma, St. Louis, MO), platelet-fibrin interaction (RGDS, Cayman Chemical, Ann Arbor, MI), and Src-family kinase (PP2, Sigma). Vehicle controls were the solvent used for the respective compound. Each treatment was performed in at least duplicate technical replicates.
Text files containing the optical density (O.D.) values were imported into R v4.0.5. Parameters of Rate of Clot Formation, Rate of Clot Retraction, Maximum O.D., Retraction Coefficient, Time to Maximum O.D., and Retraction Time were derived for each sample. Algorithms to extract parameters are described in Table 2, below.
Briefly, for Rates of Clot Formation and Retraction, a sliding window procedure was used to fit a linear model to a subset of 20 consecutive data points (k=20). The slope coefficient was extracted from each linear model and stored in an array. The Rates of Clot Formation and Retraction were defined as the maximum and minimum values, respectively, in the array. […] The data points represent donors and horizontal bars depicts medians. The Maximum and Minimum O.D. values were defined as the maximum and minimum readings, respectively. The Retraction Coefficient was defined as the difference between the Maximum and Minimum O.D. values, divided by the Maximum O.D. value. The Time to Maximum O.D. was defined as the time-point in which the Maximum O.D. value was observed. […]

[2] = system: platelet rich plasma (PRP); test: Clot retraction assay in 2% Tween coated wells (optimization of assay agonist); format: cell-based, human; conditions: 0.5, 1, 2 and 4 NIH units of thrombin, n=4
Procedure: Bottom halves of the individual wells in a 96-well plate were coated with 2% Tween and left in a vertical position inside a modified chamber for 90 minutes at room temperature. The coating solutions were then aspirated and allowed to air dry under the hood for 15 minutes. Whole blood collected in ACD tubes from healthy volunteers was subjected to centrifugation at 200×g for 10 minutes to obtain platelet rich plasma (PRP), followed by a second centrifugation at 3000×g for 10 minutes to obtain platelet poor plasma (PPP). When needed, platelet concentrations in the PRP were adjusted to desired levels using PPP. PRP samples (145 μL) were recalcified with 20 mM CaCl2 were then transferred into wells containing five μL of two NIH U/mLs of Thrombin. Further, the changes in absorbance during clot gelation and retraction were tracked at 350 nm using a microplate spectrophotometer for 90 minutes at 37° C.
To evaluate the appropriate thrombin concentration for the best outcome in the assay, we tested at 0.5, 1, 2 and 4 NIH units of thrombin (n=4). Once coagulation was initiated with thrombin, the clotting kinetics were characterized by a very short lag phase of initiation, a log phase of fibrin polymerization, a fibrin densification phase of platelet mediated fibrin remodeling, and a final rapid CR phase of declining absorbance. […]

thrombin
effect of thrombin concentration on the method's results ([1]; thrombin concentration varied, n=5): significantly affected the method's results in a concentration dependent manner
CR at 60 minutes after clot initiation [2]: 100%

N=C(N)NCCCC[C@@H]1NC(=O)CCSSC[C@@H](C(N)=O)NC(=O)[C@@H]2CCCN2C(=O)[C@H](Cc2c[nH]c3ccccc23)NC(=O)[C@H](CC(=O)O)NC(=O)CNC1=O [Eptifibatide] ([Mpa][hArg]GDWPC-NH2; disulfide 1-7)
clot densification phase (phase 3) of the reaction kinetic curve [1]: absent or greatly diminished

Arg-Gly-Asp-Ser (RGDS; printed: Arg-Gly-Asp-Ser)
clot densification phase (phase 3) of the reaction kinetic curve [1]: absent or greatly diminished

CC(C)(C)n1nc(-c2ccc(Cl)cc2)c2c(N)ncnc21 [PP2]
clot densification phase (phase 3) of the reaction kinetic curve [1]: absent or greatly diminished

[Ca+2].[Cl-].[Cl-] [CaCl2, Calcium chloride]
clot formation and clot retraction at the highest CaCl2 levels ([1]; CaCl2 concentration varied, n=5, highest levels): clot formation, but failure in clot retraction
differences in parameters across CaCl2 concentrations ([1]; range of 0 to 6 mM CaCl2): No differences

C=C1[C@@H](C)[C@H]2[C@H](Cc3ccccc3)NC(=O)[C@]23[C@H](OC(C)=O)/C=C/[C@@](C)(O)C(=O)[C@@H](C)C/C=C/[C@H]3[C@@H]1O [cytochalasin D]
all parameters except Rate of Clot Formation and Maximum O.D., differences among treatment levels ([1]; cytochalasin D pretreatment, n=5, p<0.001): significant differences
dose dependence of the differences among conditions ([1]; cytochalasin D pretreatment, greatest departure from vehicle at highest concentrations): followed the dosing level
